# Measured values taken from ChEMBL document CHEMBL1201862, “PubChem BioAssay data set” (2004).
#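 Test compounds were applied to cells in 96-well plates for 48 hours at 5 doses. The concentration for 50% growth inhibition is given as GI50.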 Calls of active or inactive are those of the source. Rule as the data show it: active = GI50 up to about 1.1 µM and inactive = higher.
# Assays:
# Assay in all cases: NCI anticancer screen, dose series, 48 h
# 786-0 = test system: 786-0
# A498 = test system: A498
# ACHN = test system: ACHN
# BT-549 = test system: BT-549
# CCRF-CEM = test system: CCRF-CEM
# DU-145 = test system: DU-145
# EKVX = test system: EKVX
# HCT-116 = test system: HCT-116
# HCT-15 = test system: HCT-15
# HOP-62 = test system: HOP-62
# HOP-92 = test system: HOP-92
# HT-29 = test system: HT-29
# IGROV-1 = test system: IGROV-1
# KM12 = test system: KM12
# LOX IMVI = test system: LOX IMVI
# M14 = test system: M14
# MCF7 = test system: MCF7
# MDA-MB-231 = test system: MDA-MB-231
# MDA-MB-435 = test system: MDA-MB-435
# MDA-N = test system: MDA-N
# NCI-H460 = test system: NCI-H460
# NCI/ADR-RES = test system: NCI/ADR-RES
# OVCAR-8 = test system: OVCAR-8
# PC-3 = test system: PC-3
# RXF 393 = test system: RXF 393
# SF-268 = test system: SF-268
# SF-295 = test system: SF-295
# SK-MEL-28 = test system: SK-MEL-28
# SK-MEL-2 = test system: SK-MEL-2
# SK-OV-3 = test system: SK-OV-3
# SN12C = test system: SN12C
# SNB-19 = test system: SNB-19
# T47D = test system: T47D
# TK-10 = test system: TK-10
# UACC-257 = test system: UACC-257
# UO-31 = test system: UO-31
# A549 = test system: A549
# CAKI-1 = test system: CAKI-1
# COLO 205 = test system: COLO 205
# HCC 2998 = test system: HCC 2998
# HL-60 = test system: HL-60
# NCI-H226 = test system: NCI-H226
# NCI-H23 = test system: NCI-H23
# OVCAR-3 = test system: OVCAR-3
# OVCAR-4 = test system: OVCAR-4
# OVCAR-5 = test system: OVCAR-5
# SF-539 = test system: SF-539
# SK-MEL-5 = test system: SK-MEL-5
# SNB-75 = test system: SNB-75
# SW-620 = test system: SW-620
# U-251 = test system: U-251
# UACC-62 = test system: UACC-62
# Hs-578T = test system: Hs-578T
# K562 = test system: K562
# MOLT-4 = test system: MOLT-4
# Malme-3M = test system: Malme-3M
# NCI-H522 = test system: NCI-H522
# RPMI-8226 = test system: RPMI-8226
# SR = test system: SR
structure (smiles),measurement,setting,value
Cc1c(F)c(N)c2c(=O)cc(-c3ccc(NC(=O)[C@@H](N)CCCCN)c(F)c3)oc2c1F,GI50,786-0,7.48 µM (inactive)
same,GI50,A498,0.057 µM (active)
same,GI50,ACHN,16.2 µM (inactive)
same,GI50,BT-549,23.6 µM (inactive)
same,GI50,CCRF-CEM,5.07 µM (inactive)
same,GI50,DU-145,14.5 µM (inactive)
same,GI50,EKVX,11 µM (inactive)
same,GI50,HCT-116,5.16 µM (inactive)
same,GI50,HCT-15,14 µM
same,GI50,HOP-62,12.3 µM (inactive)
same,GI50,HOP-92,26.7 µM (inactive)
same,GI50,HT-29,14.3 µM (inactive)
same,GI50,IGROV-1,0.0532 µM (active)
same,GI50,KM12,8.95 µM (inactive)
same,GI50,LOX IMVI,16.3 µM (inactive)
same,GI50,M14,20.7 µM (inactive)
same,GI50,MCF7,0.0399 µM (active)
same,GI50,MDA-MB-231,16.3 µM (inactive)
same,GI50,MDA-MB-435,8.65 µM (inactive)
same,GI50,MDA-N,12.5 µM (inactive)
same,GI50,NCI-H460,0.132 µM (active)
same,GI50,NCI/ADR-RES,20.4 µM (inactive)
same,GI50,OVCAR-8,13.7 µM (inactive)
same,GI50,PC-3,16.6 µM (inactive)
same,GI50,RXF 393,16.1 µM (inactive)
same,GI50,SF-268,12.8 µM (inactive)
same,GI50,SF-295,13.2 µM (inactive)
same,GI50,SK-MEL-28,18.5 µM (inactive)
same,GI50,SK-MEL-2,17.5 µM (inactive)
same,GI50,SK-OV-3,15.3 µM (inactive)
same,GI50,SN12C,14.9 µM (inactive)
same,GI50,SNB-19,27 µM (inactive)
same,GI50,T47D,0.0942 µM (active)
same,GI50,TK-10,0.239 µM (active)
same,GI50,UACC-257,0.209 µM (active)
same,GI50,UO-31,14.8 µM (inactive)
Cc1nc(C)c(C(=O)NNC(=O)C[N+](C)(C)C)cc1C(=O)NNC(=O)C[N+](C)(C)C,GI50,786-0,> 100 µM (inactive)
same,GI50,A498,> 100 µM (inactive)
same,GI50,A549,> 100 µM (inactive)
same,GI50,ACHN,> 100 µM (inactive)
same,GI50,BT-549,> 100 µM (inactive)
same,GI50,CAKI-1,> 100 µM (inactive)
same,GI50,COLO 205,> 100 µM (inactive)
same,GI50,DU-145,> 100 µM (inactive)
same,GI50,EKVX,> 100 µM (inactive)
same,GI50,HCC 2998,> 100 µM (inactive)
same,GI50,HCT-116,> 100 µM (inactive)
same,GI50,HCT-15,> 100 µM
same,GI50,HL-60,62.1 µM (inactive)
same,GI50,HOP-62,> 100 µM (inactive)
same,GI50,HOP-92,> 100 µM (inactive)
same,GI50,HT-29,> 100 µM (inactive)
same,GI50,IGROV-1,> 100 µM (inactive)
same,GI50,KM12,> 100 µM (inactive)
same,GI50,LOX IMVI,> 100 µM (inactive)
same,GI50,M14,> 100 µM (inactive)
same,GI50,MCF7,> 100 µM (inactive)
same,GI50,MDA-MB-231,> 100 µM (inactive)
same,GI50,MDA-MB-435,> 100 µM (inactive)
same,GI50,MDA-N,> 100 µM (inactive)
same,GI50,NCI-H226,> 100 µM (inactive)
same,GI50,NCI-H23,> 100 µM (inactive)
same,GI50,NCI-H460,> 100 µM (inactive)
same,GI50,NCI/ADR-RES,> 100 µM (inactive)
same,GI50,OVCAR-3,> 100 µM (inactive)
same,GI50,OVCAR-4,> 100 µM (inactive)
same,GI50,OVCAR-5,> 100 µM (inactive)
same,GI50,OVCAR-8,> 100 µM (inactive)
same,GI50,RXF 393,> 100 µM (inactive)
same,GI50,SF-268,> 100 µM (inactive)
same,GI50,SF-295,> 100 µM (inactive)
same,GI50,SF-539,> 100 µM (inactive)
same,GI50,SK-MEL-28,> 100 µM (inactive)
same,GI50,SK-MEL-2,> 100 µM (inactive)
same,GI50,SK-MEL-5,> 100 µM (inactive)
same,GI50,SK-OV-3,> 100 µM (inactive)
same,GI50,SN12C,> 100 µM (inactive)
same,GI50,SNB-19,> 100 µM (inactive)
same,GI50,SNB-75,> 100 µM (inactive)
same,GI50,SW-620,> 100 µM (inactive)
same,GI50,T47D,74.1 µM (inactive)
same,GI50,TK-10,> 100 µM (inactive)
same,GI50,U-251,> 100 µM (inactive)
same,GI50,UACC-257,> 100 µM (inactive)
same,GI50,UACC-62,> 100 µM (inactive)
same,GI50,UO-31,> 100 µM (inactive)
O=S(=O)(N/C(=N\O)Nc1ccc(Cl)cc1)c1cc2ccccc2o1,GI50,786-0,20.7 µM (inactive)
same,GI50,A549,26.1 µM (inactive)
same,GI50,ACHN,19.5 µM (inactive)
same,GI50,BT-549,17.9 µM (inactive)
same,GI50,CAKI-1,10.6 µM (inactive)
same,GI50,CCRF-CEM,22.1 µM (inactive)
same,GI50,COLO 205,22.6 µM (inactive)
same,GI50,DU-145,47.2 µM (inactive)
same,GI50,EKVX,18.6 µM (inactive)
same,GI50,HCT-116,11.4 µM (inactive)
same,GI50,HCT-15,14.7 µM
same,GI50,HL-60,15.3 µM (inactive)
same,GI50,HOP-62,23.6 µM (inactive)
same,GI50,HOP-92,13.3 µM (inactive)
same,GI50,HT-29,22.9 µM (inactive)
same,GI50,Hs-578T,20.4 µM (inactive)
same,GI50,IGROV-1,12.6 µM (inactive)
same,GI50,K562,11.1 µM (inactive)
same,GI50,KM12,13.2 µM (inactive)
same,GI50,LOX IMVI,11.5 µM (inactive)
same,GI50,M14,21.2 µM (inactive)
same,GI50,MDA-MB-231,18 µM (inactive)
same,GI50,MDA-MB-435,12.2 µM (inactive)
same,GI50,MDA-N,38.8 µM (inactive)
same,GI50,MOLT-4,22.6 µM (inactive)
same,GI50,Malme-3M,19.9 µM (inactive)
same,GI50,NCI-H226,33.4 µM (inactive)
same,GI50,NCI-H23,18 µM (inactive)
same,GI50,NCI-H460,38.7 µM (inactive)
same,GI50,NCI-H522,12.2 µM (inactive)
same,GI50,NCI/ADR-RES,19.8 µM (inactive)
same,GI50,OVCAR-3,13.1 µM (inactive)
same,GI50,OVCAR-4,17.9 µM (inactive)
same,GI50,OVCAR-5,23.6 µM (inactive)
same,GI50,OVCAR-8,18.1 µM (inactive)
same,GI50,PC-3,25.4 µM (inactive)
same,GI50,RXF 393,34.8 µM (inactive)
same,GI50,SF-268,18.3 µM (inactive)
same,GI50,SF-295,14.9 µM (inactive)
same,GI50,SF-539,33.9 µM (inactive)
same,GI50,SK-MEL-28,17.9 µM (inactive)
same,GI50,SK-MEL-2,16.6 µM (inactive)
same,GI50,SK-MEL-5,15.3 µM (inactive)
same,GI50,SK-OV-3,19.3 µM (inactive)
same,GI50,SN12C,18.1 µM (inactive)
same,GI50,SNB-19,34.5 µM (inactive)
same,GI50,SNB-75,38.1 µM (inactive)
same,GI50,SW-620,23.1 µM (inactive)
same,GI50,T47D,> 100 µM (inactive)
same,GI50,TK-10,28.8 µM (inactive)
same,GI50,U-251,17.7 µM (inactive)
same,GI50,UACC-257,19.5 µM (inactive)
same,GI50,UACC-62,10.9 µM (inactive)
same,GI50,UO-31,46.7 µM (inactive)
O=S(=O)(O)c1cc(O)c(/N=N/c2ccc3ccccc3c2O)c2ccccc12 [ERIOCHROME BLUE BLACK B],GI50,786-0,31.4 µM (inactive)
same,GI50,A549,21.1 µM (inactive)
same,GI50,ACHN,24.6 µM (inactive)
same,GI50,BT-549,37.3 µM (inactive)
same,GI50,CAKI-1,27 µM (inactive)
same,GI50,CCRF-CEM,21.9 µM (inactive)
same,GI50,COLO 205,28.7 µM (inactive)
same,GI50,DU-145,14.3 µM (inactive)
same,GI50,EKVX,12.9 µM (inactive)
same,GI50,HCT-116,33.4 µM (inactive)
same,GI50,HCT-15,23.9 µM
same,GI50,HL-60,6.17 µM (inactive)
same,GI50,HOP-62,30.3 µM (inactive)
same,GI50,HOP-92,28.5 µM (inactive)
same,GI50,HT-29,24.7 µM (inactive)
same,GI50,Hs-578T,40.8 µM (inactive)
same,GI50,IGROV-1,3.59 µM (inactive)
same,GI50,K562,18 µM (inactive)
same,GI50,KM12,30.4 µM (inactive)
same,GI50,M14,13.3 µM (inactive)
same,GI50,MDA-MB-231,16.4 µM (inactive)
same,GI50,MDA-MB-435,1.97 µM (inactive)
same,GI50,MDA-N,5.06 µM (inactive)
same,GI50,MOLT-4,18 µM (inactive)
same,GI50,Malme-3M,0.0753 µM (active)
same,GI50,NCI-H226,16.1 µM (inactive)
same,GI50,NCI-H23,15.2 µM (inactive)
same,GI50,NCI-H522,15.1 µM (inactive)
same,GI50,NCI/ADR-RES,15.6 µM (inactive)
same,GI50,OVCAR-3,4.71 µM (inactive)
same,GI50,OVCAR-4,78.3 µM (inactive)
same,GI50,OVCAR-5,33.3 µM (inactive)
same,GI50,PC-3,34.3 µM (inactive)
same,GI50,RPMI-8226,41.7 µM (inactive)
same,GI50,RXF 393,80.9 µM (inactive)
same,GI50,SF-268,10.5 µM (inactive)
same,GI50,SF-295,27.4 µM (inactive)
same,GI50,SK-MEL-28,45.6 µM (inactive)
same,GI50,SK-MEL-2,26.9 µM (inactive)
same,GI50,SK-MEL-5,11.9 µM (inactive)
same,GI50,SK-OV-3,31.6 µM (inactive)
same,GI50,SN12C,23.4 µM (inactive)
same,GI50,SNB-19,37.8 µM (inactive)
same,GI50,SNB-75,16.7 µM (inactive)
same,GI50,SR,7.41 µM (inactive)
same,GI50,SW-620,33.9 µM (inactive)
same,GI50,T47D,15.8 µM (inactive)
same,GI50,TK-10,66.2 µM (inactive)
same,GI50,U-251,32.4 µM (inactive)
same,GI50,UACC-257,25.8 µM (inactive)
same,GI50,UACC-62,14.8 µM (inactive)
same,GI50,UO-31,17.1 µM (inactive)
